Results on 12 molecules are retold here after patent publication US8383816B2, “Aryl-quinolyl compounds and their use” (Cancer Research Technology Limited, priority 2008, dated 2013).

The test system of one test is WM266.4 melanoma cells. Nature of the test: SRB Cell Proliferation Assay (SRB GI50). The conditions noted are these: Homo sapiens, WM 266-4, 144 h, 6 days growth. It counts as cell-based. The method, then:
Biological Methods—SRB Cell Proliferation Assay (SRB GI50)
Cultures of WM266.4 melanoma cells are routinely cultured in DMEM/10% foetal bovine serum, at 37° C., in 5% CO2 water saturated atmosphere. Cultures are maintained in exponential growth phase by sub-culturing before having become confluent (3-5 day intervals). Single cell suspensions are prepared by harvesting an 80 cm^2 tissue culture flask with 5 mL commercial trypsin EDTA. After 5 minutes, the detached cells are mixed with 5 mL fully complemented culture medium and centrifugally pelleted (1000 rpm for 7 minutes). After aspirating the supernatant, the cell pellet is re-suspended in 10 mL fresh medium and the cells fully disaggregated by drawing the whole volume up/down 5 times through a 19-gauge needle. The concentration of the cells is determined using a haemocytometer (1/10 dilution). A suitable volume to give at least a 2-fold excess for the number of tests being conducted, typically 100-200 mL, is prepared by diluting the cell suspension to 10,000/mL, and 100 μL/well dispensed into 96 well plates using a programmable 8-channel peristaltic pump, giving 1000 cells/well, leaving column 12 blank. The plates are returned to the incubator for 24 hours to allow the cells to re-attach.
The compounds being tested are prepared at 20 mM in dimethylsulphoxide. Aliquots (200 μL) are diluted into 20 mL culture medium giving 200 μM, and 10 serial dilutions of 3× performed by transferring 5 mL to 10 mL. Aliquots (100 μL) of each dilution are added to the wells, using an 8-channel pipettor, thus performing a final further 2× dilution, and giving doses ranging from 100 μM to 0.005 μM. Column 11 receives plain culture medium only. Each compound is tested in quadruplicate, each replicate being the average of four wells, and two plates per compound.
After a further 6 days growth, the plates are emptied, and the cells are fixed in 10% trichloroacteic acid for 10 minutes on ice. After thorough rinsing in running tap water, the plates are dried, and stained by adding 50 μL of a solution of 0.1% sulphorhodamine-B in 1% acetic acid, for 10 minutes at room temperature. The stain is poured out and the plates thoroughly rinsed under a stream of 1% acetic acid, thus removing unbound stain, and dried. The bound stain is taken into solution by addition of 150 μL Tris buffer pH 8, followed by 10 minutes on a plate-shaker (approximately 500 rpm). The absorbance at 540 nm in each well (being proportional to the number of cells present) is determined using a plate reader.
After averaging the results in rows A-D and E-H, the blank value (row 12) is subtracted, and results expressed as percentage of the untreated value (row 11). […] The GI50 generated by this procedure is the concentration of the drug that produces a percentage control A540 midway between the saturation, and zero-effect plateaus.

Another test deals with pERK. As to the kind of experiment: Cell Based Phospho-ERK Assay. Conditions: 6 h, cells incubated with test compound for 6 hours. The method, then:
Biological Methods—Cell Based Phosho-ERK Assay
Compounds were assessed using a cell-based assay which was performed according to the following protocol.
Plate out 16,000 cells/well in 99 μL medium in a 96-well plate.
1. Add 1 μL inhibitor to the cells […].
2. Incubate the cells with test compound for 6 hours at 37° C.
3. Aspirate off the solution from all of the wells.
4. Fixate the cells with 100 μL 4% formaldehyde/0.25% Triton X-100 PBS per well.
5. Incubate the plate for 1 hour at 4° C.
6. Aspirate off the fixing solution and add 300 μL TBS per well.
7. Leave the plate overnight at 4° C.
1. Wash the plate 2× with 200 μL PBS per well.
2. Block with 100 μL 5% dried milk in TBS.
3. Incubate the plate for 20 minutes at 37° C.
4. Wash the plate 2× with 0.1% tween/H2O.
5. Add 50 μL of 3 μg/mL primary antibody pERK (Sigma M8159), diluted in 5% milk powder/TBS, to each well.
6. Incubate the plate for 2 hours at 37° C.
7. Wash the plate 3× with 0.1% tween/H2O.
8. Add 50 μL of 0.45 μg/mL secondary Europium-labelled anti-mouse antibody (Perkin Elmer) to each well.
9. Incubate the plate for 1 hour at 37° C.
10. Wash the plate 3× with 0.1% tween/H2O.
11. Add 100 μL enhancement solution (Perkin Elmer) to each well.
12. Leave the plate for approximately 10 minutes at room temperature before gently shaking the plate.
13. Read Europium Time Resolved Fluorescence in Victor2.
14. Wash the plate 2× with 0.1% tween/H2O.
15. Measure the protein concentration with BCA (Sigma) by adding 200 μL of solution per well.
16. Incubate the plate for 30 minutes at 37° C.
17. Read absorbance levels at 570 nm in a plate reader.
Note that Europium counts are normalised for protein levels by dividing counts by absorbance.
(§1) Values for the blank (no cells) are subtracted from all values. The DMSO controls are set as 100% activity and assay points (the response) are calculated as a percentage of the DMSO control. Data are plotted using Graphpad Prism software and a non-linear regression line is calculated using a variable slope sigmoidal dose-response equation (Y=Bottom+(Top−Bottom)/(1+10^((LogEC50−X)*HillSlope)) where X is the logarithm of concentration. Y is the response). The IC50 generated by this procedure is the concentration of the drug that produces a percentage control fluorescence value midway between the saturation, and zero-effect plateaus. Three independent assays are usually performed and the mean IC50 is reported.

Another test addresses B-RAF (Homo sapiens, UniProt P15056, V600E). Nature of the test: DELFIA Kinase Assay. The class given is biochemical. The conditions noted are these: 100 μM ATP. The procedure: Biological Methods—DELFIA Kinase Assay
Compounds were assessed by a kinase assay performed according to the following protocol.
DELFIA Kinase Buffer (DKB):
DKB1 (DKB with B-RAF and MEK Protein):
Combine 4950 μL of DKB and 50 μL of 2.5 mg/ml GST-MEK stock (to give […] of MEK per 40 μL). Then add 22.5 μL of B-RAF to give ˜0.2 μL of B-RAF per 40 μL.
DKB2 (DKB with MEK Protein):
Combine 4950 μL of DKB and 50 μL of 2.5 mg/ml GST-MEK stock (to give 1 mg of MEK per 40 μL). Use 500 μL of this for the blow out (BO) and the empty vector (EV) control.
100 mM stock, dilute to 500 μM to give 100 μM final concentration in assay.
Inhibitors (Test Compounds):
Phospho-MEK½ CST #9121S diluted 1:1000 in DELFIA assay buffer (AB). Preincubate antibody in the AB for 30 minutes at room temperature prior to use.
Anti-rabbit-Eur labelled secondary Perkin Elmer #AD0105 diluted 1:1000 in DELFIA assay buffer (AB). Preincubate antibody in the AB for 30 minutes at room temperature prior to use. (Primary and secondary antibodies were incubated together.)
1. Preblock wells with 5% milk in TBS for 1 hour.
2. Wash wells with 3× with 200 μL TBS.
3. Plate out 40 μL of DKB1 for all inhibitors (test compounds), DMSO control, and optionally other control compounds.
4. Plate out 40 μL of DKB2 for BO and EV wells.
5. Add inhibitors (test compounds) at 0.5 μL per well according to desired plate layout.
6. Add 0.5 μL DMSO to vehicle control wells.
7. Add 2 μL of B-RAF to BO and EV wells.
8. Pre-incubate with inhibitors (test compounds) for 10 minutes at room temperature with shaking.
9. Add 10 μL of 500 μM ATP stock, in DKB, to give 100 μM assay concentration.
10. Seal plates with TopSeal and incubate at room temperature with shaking for 45 minutes.
11. Wash plates 3× with 200 μL 0.1% Tween20/Water to terminate reaction.
12. Add 50 μL per well of antibody mix and incubate for 1 hour at room temperature with shaking.
13. Wash plates 3× with 200 μL 0.1% Tween20/Water.
14. Add 100 μL DELFIA enhancement solution per well, cover in foil, and incubate at room temperature for 30 minutes with shaking.
15. Read on Victor using Europium protocol.
as §1, with “(Empty Vector)” for “(no cells)”

Sequence of B-RAF (P15056 whole entry V600E): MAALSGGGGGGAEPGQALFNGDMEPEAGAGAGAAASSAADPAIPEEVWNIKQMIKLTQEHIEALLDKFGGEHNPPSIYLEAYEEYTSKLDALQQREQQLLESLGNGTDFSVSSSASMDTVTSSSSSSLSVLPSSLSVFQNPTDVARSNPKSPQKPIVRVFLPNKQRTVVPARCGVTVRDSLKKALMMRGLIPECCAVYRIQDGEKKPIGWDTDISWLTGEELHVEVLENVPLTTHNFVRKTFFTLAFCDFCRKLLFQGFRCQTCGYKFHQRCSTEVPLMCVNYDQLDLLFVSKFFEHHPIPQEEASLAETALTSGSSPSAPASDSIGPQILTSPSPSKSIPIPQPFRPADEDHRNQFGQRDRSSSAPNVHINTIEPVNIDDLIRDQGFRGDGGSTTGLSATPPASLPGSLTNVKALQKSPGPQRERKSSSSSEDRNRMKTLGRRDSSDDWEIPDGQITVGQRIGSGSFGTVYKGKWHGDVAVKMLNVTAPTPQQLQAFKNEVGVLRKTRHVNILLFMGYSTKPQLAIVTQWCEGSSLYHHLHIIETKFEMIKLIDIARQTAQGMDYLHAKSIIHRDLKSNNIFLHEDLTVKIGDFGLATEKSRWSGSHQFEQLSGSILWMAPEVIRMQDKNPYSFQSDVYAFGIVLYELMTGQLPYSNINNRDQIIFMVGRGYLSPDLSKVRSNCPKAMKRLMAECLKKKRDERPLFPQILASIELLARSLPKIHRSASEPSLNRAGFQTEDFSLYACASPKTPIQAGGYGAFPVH

Regarding `CC(C)(C)c1cc(NC(=O)Nc2ccc(Oc3ccnc4[nH]c(=O)cnc34)c3cccnc23)n(-c2ccccc2)n1` [BB-008, 5-[(8-Amino-quinolinyl-5-oxy)carbonylamino-5-(1-N-phenyl-3-t-butyl-imidazolyl)]-pyridin-[2,3]pyrazin-2-one], in the test on WM266.4 melanoma cells, the GI50 (as a rule, the concentration giving 50% growth inhibition) is ≤ 10 µM. The IC50 (commonly the point on the concentration scale where inhibition reaches its midpoint) in the test on pERK was ≤ 10 µM; on B-RAF, ≤ 1 µM.
`C#CCn1nc(C(C)(C)C)cc1NC(=O)Nc1ccc(Oc2ccnc3[nH]c(=O)c(C)nc23)c2cccnc12` [BB-011]: in the test on WM266.4 melanoma cells, the GI50 is ≤ 10 µM. The IC50 with pERK is ≤ 10 µM; on B-RAF, ≤ 1 µM.
Regarding `Cc1ccc(-n2nc(C(C)(C)C)cc2NC(=O)Nc2ccc(Oc3ccnc4[nH]c(=O)cnc34)c3cccnc23)cc1` [BB-007, 5-[(8-Amino-quinolinyl-5-oxy)carbonylamino-5-(1-N-p-tolyl-3-t-butyl-imidazolyl)]-pyridin-[2,3]pyrazin-2-one], the GI50 in the test on WM266.4 melanoma cells is ≤ 10 µM. Also, the IC50 is ≤ 10 µM in the test with pERK and ≤ 1 µM against B-RAF.
On to `C#CCn1nc(C(C)(C)C)cc1NC(=O)Nc1ccc(Oc2ccnc3[nH]c(=O)cnc23)c2cccnc12` [BB-012], for which the GI50 with WM266.4 melanoma cells is ≤ 10 µM. Also, the results for the IC50 in the test with pERK and at B-RAF were ≤ 10 µM and ≤ 1 µM, respectively.
With `O=C(Nc1cccc(SC(F)(F)F)c1)Nc1ccc(Oc2ccnc3[nH]c(=O)[nH]c23)c2cccnc12` [AA-009, 4-[(5-Oxy-quinolinyl-8-amino)carbonylamino-(3-trifluoromethylthio-phenyl)]-pyridin-5,6-imidazolone], the GI50 with WM266.4 melanoma cells was ≤ 10 µM. The figures for the IC50 in the test with pERK and against B-RAF were ≤ 10 µM and ≤ 1 µM, respectively.
`Cc1nc2c(Oc3ccc(NC(=O)Nc4cc(C(C)(C)C)nn4-c4ccccc4)c4ncccc34)ccnc2[nH]c1=O` [BB-003, 5-[(8-Amino-quinolinyl-5-oxy)carbonylamino-5-(1-N-p-phenyl-3-t-butyl-imidazolyl)]-pyridin-[2,3]-3-methylpyrazin-2-one]: the GI50 in the test with WM266.4 melanoma cells is ≤ 10 µM. The figures for the IC50 with pERK and at B-RAF were ≤ 10 µM and ≤ 1 µM, respectively.
With `Cn1c(=O)[nH]c2c(Oc3ccc(NC(=O)Nc4cccc(C(C)(C)C)c4)c4ncccc34)ccnc21` [AA-018, 5-[(8-Amino-quinolinyl-5-oxy)carbonylamino-3-(t-butyl-phenyl)]-pyridin-[2,3]1-N-methylimidazol-2-one], in the test with WM266.4 melanoma cells, the concentration for 50% growth inhibition (GI50) is ≤ 10 µM. Besides, the IC50 in the test on pERK was ≤ 10 µM; against B-RAF, ≤ 1 µM.
For the molecule `O=C(Nc1cc(C(F)(F)F)ccc1F)Nc1ccc(Oc2ccnc3ncc(=O)[nH]c23)c2cccnc12` [BB-004, 5-[(8-Amino-quinolinyl-5-oxy)carbonylamino-5-(2-fluoro-5-trifluoromethyl-phenyl)]-pyridin-[2,3]pyrazin-3-one], the GI50 in the test on WM266.4 melanoma cells is ≤ 10 µM. The IC50 with pERK is ≤ 10 µM; against B-RAF it was ≤ 1 µM.
For `C=CCn1nc(C(C)(C)C)cc1NC(=O)Nc1ccc(Oc2ccnc3[nH]c(=O)c(C)nc23)c2cccnc12` [BB-009], in the test with WM266.4 melanoma cells, the GI50 is ≤ 10 µM. Further, the figures for the IC50 with pERK and against B-RAF were ≤ 10 µM and ≤ 1 µM, respectively.
For the molecule `O=C(Nc1cc(C(F)(F)F)ccc1F)Nc1ccc(Oc2ccnc3[nH]c(=O)[nH]c23)c2cccnc12` [AA-010, 4-[(5-Oxy-quinolinyl-8-amino)carbonylamino-(2-fluoro-5-trifluoromethyl-phenyl)]-pyridin-5,6-imidazolone], the 50% growth inhibitory concentration (GI50) in the test with WM266.4 melanoma cells is ≤ 10 µM. In addition, the results for the IC50 in the test on pERK and at B-RAF were ≤ 10 µM and ≤ 1 µM, respectively.
As for `Cn1nc(C(C)(C)C)cc1NC(=O)Nc1ccc(Oc2ccnc3c2[nH]c(=O)n3C)c2cccnc12` [AA-017, 5-[(8-Amino-quinolinyl-5-oxy)carbonylamino-5-(1-methyl-3-t-butyl-imidazolyl)]-pyridin-[2,3]1-N-methylimidazol-2-one], the GI50 in the test with WM266.4 melanoma cells is ≤ 10 µM. Also, the figures for the IC50 in the test on pERK and against B-RAF were ≤ 10 µM and ≤ 1 µM, respectively.
For `CC(C)(C)c1cc(NC(=O)Nc2ccc(Oc3ccnc4[nH]c(=O)[nH]c34)c3cccnc23)n(-c2ccccc2)n1` [AA-005, 4-[(5-Oxy-quinolinyl-8-amino)carbonyl-amino-(1-N-phenyl-3-t-butyl-pyrazol-5-yl)]-pyridin-5,6-imidazolone], in the test on WM266.4 melanoma cells, the GI50 was ≤ 10 µM. Further, the results for the IC50 in the test with pERK and against B-RAF were ≤ 10 µM and ≤ 1 µM, respectively.
